Peptide text beside a SMILES is read from it.
Tests used:
[1] = test system: HIF-1α induced transcription of VEGF gene in HeLa cells; conditions: ref [18]; cited from earlier work
[2] = target: GST-p300 (p300 CH1 domain) (Homo sapiens, UniProt Q09472); experiment: Isothermal titration microcalorimetry; assay type: binding; conditions: for affinity for GST-p300 (in words): isothermal titration microcalorimetry
[3] = assay type: physicochemical; conditions: 10% trifluoroethanol in phosphate buffered saline (pH 6.3); for % helicity: circular dichroism, estimated from mean residue ellipticity at 222 nm
[4] = test system: HIF-1α induced transcription of VEGF gene in HeLa cells; assay type: cell-based; conditions: qRT-PCR, hypoxic conditions (DFO), 12 and 24 h incubation
[5] = test system: cell density and population doubling; experiment: Cell viability assay; assay type: cell-based; conditions: monitored up to 72 h, 1 μM peptide, 200 nM chetomin
[6] = test system: GST-p300; CH1 domains of CBP (or p300); experiment: CD spectrum of GST-p300 / CH1 structural change on addition of compound; conditions: circular dichroism of GST-p300 with HBS 2 added

GST-p300 (p300 CH1 domain), sequence (Q09472 331-417 limits assumed): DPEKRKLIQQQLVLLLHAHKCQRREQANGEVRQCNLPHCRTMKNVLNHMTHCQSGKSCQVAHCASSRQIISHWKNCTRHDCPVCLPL

CN1C(=O)[C@]2(Cc3cn([C@]45C[C@@]67SS[C@@](CO)(C(=O)N6[C@H]4Nc4ccccc45)N(C)C7=O)c4ccccc34)SS[C@@]1(CO)C(=O)N2C [chetomin]
inhibition of VEGF transcription, literature (in words) [1]: known potent inhibitor of VEGF transcription

C[C@H](NC(=O)[C@H](CC(N)=O)NC(=O)[C@H](Cc1ccc(O)cc1)NC(=O)[C@H](CCC(=O)O)NC(=O)[C@H](CS)NC(=O)[C@H](CC(=O)O)NC(=O)[C@H](C)N1C/C=C/CCC(=O)N[C@@H]([C@@H](C)O)C(=O)N[C@@H](C)C1=O)C(N)=O [compound 1]
affinity for GST-p300 (in words) [2]: submicromolar affinity | % helicity [3]: 40% | inhibition of VEGF transcription (in words) [4]: did not show measurable inhibition of transcription

C[C@H](NC(=O)[C@H](CC(N)=O)NC(=O)[C@H](Cc1ccc(O)cc1)NC(=O)[C@H](CCC(=O)O)NC(=O)[C@H](CS)NC(=O)[C@H](CC(=O)O)NC(=O)[C@H](C)N1C/C=C/CCC(=O)N[C@@H]([C@@H](C)O)C(=O)N[C@@H](C)C1=O)C(=O)N[C@@H](CCCNC(=N)N)C(N)=O [compound 2]
affinity for GST-p300 (in words) [2]: does not have a detrimental effect on the ability of HBS 2 to bind GST-p300 | solution conformation by CD (in words) ([3]; listed as HBS 2): more helical than HBS 1 | % helicity [3]: 53% | cytotoxicity (in words) [5]: does not display significant cytotoxicity | effect on CD spectrum of GST-p300 (in words) [6]: does not alter the CD spectrum of GST-p300

CC(=O)N[C@H](C(=O)N[C@@H](C)C(=O)N[C@@H](C)C(=O)N[C@@H](CC(=O)O)C(=O)N[C@@H](CS)C(=O)N[C@@H](CCC(=O)O)C(=O)N[C@@H](Cc1ccc(O)cc1)C(=O)N[C@@H](CC(N)=O)C(=O)N[C@@H](C)C(=O)N[C@@H](CCCNC(=N)N)C(=O)O)[C@@H](C)O [compound 4] (Ac-TAADCEYNAR-OH)
Kd [2]: 825 ± 50 nM

From PMC2810346 (Journal of the American Chemical Society, 2010)
